The results in this text go back to patent US6495578B1, “Sulfonamide derivatives having oxadiazole rings” (Shionogi & Co., Ltd., priority 1999, dated 2002).

This assay deals with T1, MMP-2 (Homo sapiens, UniProt P08253).
T1 construct: purchased Calbiochem-Novabiochem International, Inc
T1 sequence (P08253 110-660): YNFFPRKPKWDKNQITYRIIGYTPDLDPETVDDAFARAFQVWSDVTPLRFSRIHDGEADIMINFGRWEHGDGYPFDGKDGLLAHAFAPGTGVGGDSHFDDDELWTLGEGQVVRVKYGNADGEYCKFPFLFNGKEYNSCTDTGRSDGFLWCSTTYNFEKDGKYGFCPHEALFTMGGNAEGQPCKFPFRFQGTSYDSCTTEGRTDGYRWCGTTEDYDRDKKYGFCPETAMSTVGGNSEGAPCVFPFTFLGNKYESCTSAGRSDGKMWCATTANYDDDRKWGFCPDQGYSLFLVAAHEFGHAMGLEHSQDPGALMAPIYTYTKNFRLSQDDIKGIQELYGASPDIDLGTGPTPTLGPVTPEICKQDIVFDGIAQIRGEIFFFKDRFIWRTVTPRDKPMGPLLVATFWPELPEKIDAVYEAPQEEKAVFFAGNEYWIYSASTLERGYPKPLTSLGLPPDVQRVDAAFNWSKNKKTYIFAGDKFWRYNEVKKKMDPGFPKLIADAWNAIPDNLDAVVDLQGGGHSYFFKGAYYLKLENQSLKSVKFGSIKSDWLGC
The assay can be described thus: Assay for inhibitory activities on MMP-2 (fluorogenic coumarin-labelled peptide substrate). Format: biochemical. The note with it: MMP-2 purchased from Calbiochem-Novabiochem; substrate MOCAc-Pro-Leu-Gly-Leu-A2Pr(DNP)-Ala-Arg-NH2. Here is the method: MMP-2 was purchased from Calbiochem-Novabiochem International, Inc.
The enzymatic activity on MMP-2 was analyzed by the method described in “C. Graham Knight, Frances Willenbrock and Gillian Murphy: A novel coumarin-labelled peptide for sensitive continuous assays of the matrix metalloproteinases: FEBS LETT., 296, (1992), 263-266”. The substrate: MOCAc-Pro-Leu-Gly-Leu-A2Pr(DNP)-Ala-Arg-NH2 was purchased from Peptide Institute, Inc., Osaka, Japan.
The measurement of the inhibitory activities (IC50) was carried out by the following four methods;
A) Reaction with substrate, enzyme (MMPs) and inhibitor
B) Reaction with substrate and inhibitor, without enzyme
C) Reaction with substrate and enzyme (MMPs), without inhibitor
D) Reaction with substrate only
IC50 values were calculated by using the following formula and each fluorescence values of above four methods (A to D).
IC50 means the concentration required to inhibit 50% of the enzyme activity.

`CC(C)[C@@H](NS(=O)(=O)c1ccc(-c2noc(-c3ccc(Cl)cc3)n2)cc1)C(=O)O` [Compound A-2] came in with an IC50 of 5.75 nM.

As for `CCc1ccc(-c2nc(-c3ccc(S(=O)(=O)N[C@@H](C(=O)O)C(C)C)cc3)no2)cc1` [Compound A-3], the IC50 came to 1.24 nM.

`CCCCc1ccc(-c2nc(-c3ccc(S(=O)(=O)N[C@@H](C(=O)O)C(C)C)cc3)no2)cc1` [Compound A-4] registered an IC50 of 1.23 nM.

`Cc1ccc(-c2nc(-c3ccc(S(=O)(=O)N[C@H](Cc4ccccc4)C(=O)O)cc3)no2)cc1` [Compound A-5] came in with an IC50 of 6.68 nM.

`O=C(O)[C@@H](Cc1ccccc1)NS(=O)(=O)c1ccc(-c2noc(-c3ccc(Cl)cc3)n2)cc1` [Compound A-6] yielded an IC50 of 13.9 nM.

With `O=C(O)[C@@H](Cc1ccccc1)NS(=O)(=O)c1ccc(-c2noc(-c3ccc(F)cc3)n2)cc1` [Compound A-7], it took 26.5 nM to reach half-maximal inhibition (IC50).

Molecule `CN(C)c1ccc(-c2nc(-c3ccc(S(=O)(=O)N[C@H](Cc4ccccc4)C(=O)O)cc3)no2)cc1` [Compound A-8] displayed an IC50 of 11.9 nM.

`CCCCc1ccc(-c2nc(-c3ccc(S(=O)(=O)N[C@H](Cc4ccccc4)C(=O)O)cc3)no2)cc1` [Compound A-9]: the IC50 amounted to 6.04 nM.

Regarding `Cc1ccc(-c2nc(-c3ccc(S(=O)(=O)N[C@H](C)C(=O)O)cc3)no2)cc1` [Compound A-10], the IC50 is 9.17 nM.

As for `C[C@@H](NS(=O)(=O)c1ccc(-c2noc(-c3ccc(Cl)cc3)n2)cc1)C(=O)O` [Compound A-11], the IC50 worked out at 18.6 nM.

Consider `Cc1ccc(-c2nc(-c3ccc(S(=O)(=O)NCC(=O)O)cc3)no2)cc1` [Compound A-12], for which inhibition was half-maximal at 51.6 nM (IC50).

As for `O=C(O)CNS(=O)(=O)c1ccc(-c2noc(-c3ccc(Cl)cc3)n2)cc1` [Compound A-13], the IC50 was 85.2 nM.

The molecule `CC(C)[C@@H](NS(=O)(=O)c1ccc(-c2noc(-c3ccccc3)n2)cc1)C(=O)O` [Compound A-16] returned an IC50 of 26.4 nM.

Take `CC(C)[C@@H](NS(=O)(=O)c1ccc(-c2noc(-c3ccc(F)cc3)n2)cc1)C(=O)O` [Compound A-17]: the IC50 came to 15.5 nM.

`Cc1ccc(-c2nc(-c3ccc(S(=O)(=O)NC(C(=O)O)C(C)C)cc3)no2)cc1` (stereo not drawn) [Compound A-19] came in with an IC50 of 114 nM.

The molecule `CCCc1ccc(-c2nc(-c3ccc(S(=O)(=O)NC(C(=O)O)C(C)C)cc3)no2)cc1` (stereo not drawn) [Compound A-20] yielded an IC50 of 0.883 nM.

For `CCCc1ccc(-c2nc(-c3ccc(S(=O)(=O)N[C@H](C(=O)O)C(C)C)cc3)no2)cc1` [Compound A-21], half-maximal inhibition (IC50) was put at 126 nM.

Consider `CC(C)[C@@H](NS(=O)(=O)c1ccc(-c2noc(-c3cccs3)n2)cc1)C(=O)O` [Compound A-22], for which the IC50 was determined as 40.7 nM.

Regarding `CC(C)[C@H](NS(=O)(=O)c1ccc(-c2noc(-c3cccs3)n2)cc1)C(=O)O` [Compound A-23], the IC50 is 339 nM.

Turning to `Cc1ccc(-c2nc(-c3ccc(S(=O)(=O)N[C@@H](C(=O)O)C(C)C)cc3)no2)s1` [Compound A-24], the IC50 worked out at 2.88 nM.

The molecule `Cc1ccc(-c2nc(-c3ccc(S(=O)(=O)N[C@H](C(=O)O)C(C)C)cc3)no2)s1` [Compound A-25] showed an IC50 of 47.4 nM.

`CC(C)[C@@H](NS(=O)(=O)c1ccc(-c2noc(-c3ccc(Cl)s3)n2)cc1)C(=O)O` [Compound A-26] yielded an IC50 of 6.72 nM.

In turn, `CC(C)[C@H](NS(=O)(=O)c1ccc(-c2noc(-c3ccc(Cl)s3)n2)cc1)C(=O)O` [Compound A-27] showed an IC50 of 60.3 nM.

As for `O=C(O)[C@@H](Cc1ccccc1)NS(=O)(=O)c1ccc(-c2noc(-c3ccccc3)n2)cc1` [Compound A-29], the IC50 was 27.9 nM.

For `Cc1ccc(-c2nc(-c3ccc(S(=O)(=O)N[C@@H](Cc4ccccc4)C(=O)O)cc3)no2)cc1` [Compound A-30], it took 39.8 nM to reach half-maximal inhibition (IC50).

`CCc1ccc(-c2nc(-c3ccc(S(=O)(=O)N[C@H](Cc4ccccc4)C(=O)O)cc3)no2)cc1` [Compound A-31] returned an IC50 of 4.98 nM.

The molecule `N#Cc1ccc(-c2nc(-c3ccc(S(=O)(=O)N[C@H](Cc4ccccc4)C(=O)O)cc3)no2)cc1` [Compound A-34] came in with an IC50 of 13.1 nM.

`O=C(O)[C@@H](Cc1ccccc1)NS(=O)(=O)c1ccc(-c2noc(-c3ccc(C4CCCCC4)cc3)n2)cc1` [Compound A-35] displayed an IC50 of 14.4 nM.

As to `Cc1cccc(-c2nc(-c3ccc(S(=O)(=O)N[C@H](Cc4ccccc4)C(=O)O)cc3)no2)c1` [Compound A-36], the IC50 was 38 nM.

In turn, `O=C(O)[C@H](Cc1ccccc1)NS(=O)(=O)c1ccc(-c2noc(-c3ccc4c(c3)OCO4)n2)cc1` [Compound A-37] gave an IC50 of 20.2 nM.

`COc1ccc(-c2nc(-c3ccc(S(=O)(=O)N[C@@H](Cc4ccccc4)C(=O)O)cc3)no2)cc1OC` [Compound A-38] displayed an IC50 of 506 nM.

In turn, `O=C(O)[C@H](Cc1ccccc1)NS(=O)(=O)c1ccc(-c2noc(-c3ccc(Cl)c(Cl)c3)n2)cc1` [Compound A-39] registered an IC50 of 80.7 nM.

As for `O=C(O)[C@@H](Cc1ccccc1)NS(=O)(=O)c1ccc(-c2noc(-c3cccs3)n2)cc1` [Compound A-40], the IC50 was 31 nM.

The molecule `Cc1ccc(-c2nc(-c3ccc(S(=O)(=O)N[C@H](Cc4ccccc4)C(=O)O)cc3)no2)s1` [Compound A-41] had an IC50 of 5.59 nM.

`O=C(O)[C@@H](Cc1ccccc1)NS(=O)(=O)c1ccc(-c2noc(-c3ccco3)n2)cc1` [Compound A-42] displayed an IC50 of 47 nM.

For the molecule `O=C(O)[C@@H](Cc1ccccc1)NS(=O)(=O)c1ccc(-c2noc(-c3cccnc3)n2)cc1` [Compound A-43], the IC50 is 171 nM.

With `C[C@@H](NS(=O)(=O)c1ccc(-c2noc(-c3ccccc3)n2)cc1)C(=O)O` [Compound A-44], the IC50 was found to be 45 nM.

For `C[C@@H](NS(=O)(=O)c1ccc(-c2noc(-c3ccc(F)cc3)n2)cc1)C(=O)O` [Compound A-45], the IC50 is 31 nM.

Molecule `Cc1ccc(-c2nc(-c3ccc(S(=O)(=O)N[C@@H](C)C(=O)O)cc3)no2)cc1` [Compound A-46] yielded an IC50 of 458 nM.

On to `CCc1ccc(-c2nc(-c3ccc(S(=O)(=O)N[C@H](C)C(=O)O)cc3)no2)cc1` [Compound A-47], for which the IC50 stood at 4.63 nM.

In turn, `CCCc1ccc(-c2nc(-c3ccc(S(=O)(=O)N[C@H](C)C(=O)O)cc3)no2)cc1` [Compound A-48] displayed an IC50 of 1.17 nM.

The molecule `CCCc1ccc(-c2nc(-c3ccc(S(=O)(=O)N[C@@H](C)C(=O)O)cc3)no2)cc1` [Compound A-49] returned an IC50 of 126 nM.

`C[C@@H](NS(=O)(=O)c1ccc(-c2noc(-c3ccc([N+](=O)[O-])cc3)n2)cc1)C(=O)O` [Compound A-50] displayed an IC50 of 12.6 nM.

Molecule `CC(=O)c1ccc(-c2nc(-c3ccc(S(=O)(=O)N[C@H](C)C(=O)O)cc3)no2)cc1` [Compound A-51] returned an IC50 of 3.21 nM.

The molecule `C[C@@H](NS(=O)(=O)c1ccc(-c2noc(-c3cccs3)n2)cc1)C(=O)O` [Compound A-52] had an IC50 of 36.8 nM.

With `Cc1ccc(-c2nc(-c3ccc(S(=O)(=O)N[C@H](C)C(=O)O)cc3)no2)s1` [Compound A-53], 8.74 nM corresponded to half-maximal inhibition (IC50).

For the molecule `C[C@@H](NS(=O)(=O)c1ccc(-c2noc(-c3ccc(Cl)s3)n2)cc1)C(=O)O` [Compound A-54], 12.4 nM corresponded to half-maximal inhibition (IC50).

Molecule `C[C@@H](NS(=O)(=O)c1ccc(-c2noc(-c3ccsc3)n2)cc1)C(=O)O` [Compound A-55] came in with a 50% inhibitory concentration (IC50) of 50.3 nM.

Molecule `C[C@@H](NS(=O)(=O)c1ccc(-c2noc(-c3ccco3)n2)cc1)C(=O)O` [Compound A-56] came in with an IC50 of 70.5 nM.

Turning to `CCc1ccc(-c2nc(-c3ccc(S(=O)(=O)NCC(=O)O)cc3)no2)cc1` [Compound A-59], inhibition was half-maximal at 20 nM (IC50).

For `CC(C)c1ccc(-c2nc(-c3ccc(S(=O)(=O)NCC(=O)O)cc3)no2)cc1` [Compound A-60], inhibition was half-maximal at 14.3 nM (IC50).

In the case of `CCCc1ccc(-c2nc(-c3ccc(S(=O)(=O)NCC(=O)O)cc3)no2)cc1` [Compound A-61], the IC50 turned out to be 15.7 nM.

Molecule `O=C(O)CNS(=O)(=O)c1ccc(-c2noc(-c3cccs3)n2)cc1` [Compound A-62] had an IC50 of 196 nM.

The molecule `Cc1ccc(-c2nc(-c3ccc(S(=O)(=O)NCC(=O)O)cc3)no2)s1` [Compound A-63] returned an IC50 of 33.9 nM.

For the molecule `CCc1ccc(-c2nc(-c3ccc(S(=O)(=O)N[C@H](Cc4c[nH]c5ccccc45)C(=O)O)cc3)no2)cc1` [Compound A-64], the IC50 worked out at 1.39 nM.

Consider `CCCc1ccc(-c2nc(-c3ccc(S(=O)(=O)N[C@H](Cc4c[nH]c5ccccc45)C(=O)O)cc3)no2)cc1` [Compound A-65], for which the IC50 was determined as 1.66 nM.

In turn, `CC(C)C[C@@H](NS(=O)(=O)c1ccc(-c2noc(-c3ccc(Cl)cc3)n2)cc1)C(=O)O` [Compound A-66] returned an IC50 of 37.6 nM.
